# Measured values: article PMC6394493 (Cancer Chemotherapy and Pharmacology, 2018)
# Assay: Safety assessment: adverse events
# Format: in vivo, Japanese patients
# Excerpt: Safety assessments consisted of monitoring and recording of all AEs, including laboratory abnormalities and vital signs. DLTs were defined as an AE or a laboratory abnormality assessed as related to the study drug and occurring within the first 28 days of treatment (Cycle 1), as defined in Supplemental Table S1.
# [1] = bid 400 mg N = 8, regardless of study drug relationship
# [2] = qd 400 mg (n = 3), regardless of study drug relationship
# [3] = qd 800 mg (n = 3), regardless of study drug relationship
# [4] = qd 1000 mg (n = 8), regardless of study drug relationship
compound,measurement,setting,value
Cn1c(=O)n(-c2ccc(C(C)(C)C#N)cc2)c2c3cc(-c4cnc5ccccc5c4)ccc3ncc21 [BEZ235],study drug-related SAE,1000 mg qd,grade 2 colitis
same,patients requiring dose reduction in Cycle 2,1200 mg qd,two out of six
same,patients requiring dose interruption due to AEs,1400 mg qd,six
same,patients requiring dose reduction in early cycles,1400 mg qd,three
same,study drug-related SAE,1400 mg qd,grade 2 Pneumocystis jiroveci pneumonia
same,"AEs Total, All grades",[1],8 (100.0) n (%)
same,"AEs Total, Grade ¾",[1],7 (87.5) n (%)
same,"Alanine aminotransferase increased, All grades",[1],4 (50.0) n (%)
same,"Alanine aminotransferase increased, Grade ¾",[1],0 n (%)
same,"Anxiety, All grades",[1],2 (25.0) n (%)
same,"Anxiety, Grade ¾",[1],0 n (%)
same,"Aspartate aminotransferase increased, All grades",[1],4 (50.0) n (%)
same,"Aspartate aminotransferase increased, Grade ¾",[1],1 (12.5) n (%)
same,"Blood alkaline phosphatase increased, All grades",[1],2 (25.0) n (%)
same,"Blood alkaline phosphatase increased, Grade ¾",[1],0 n (%)
same,"Blood creatinine increased, All grades",[1],3 (37.5) n (%)
same,"Blood creatinine increased, Grade ¾",[1],0 n (%)
same,"Cancer pain, All grades",[1],3 (37.5) n (%)
same,"Cancer pain, Grade ¾",[1],2 (25.0) n (%)
same,"Cheilitis, All grades",[1],3 (37.5) n (%)
same,"Cheilitis, Grade ¾",[1],0 n (%)
same,"Decreased appetite, All grades",[1],7 (87.5) n (%)
same,"Decreased appetite, Grade ¾",[1],1 (12.5) n (%)
same,"Diarrhea, All grades",[1],7 (87.5) n (%)
same,"Diarrhea, Grade ¾",[1],1 (12.5) n (%)
same,"Dry skin, All grades",[1],4 (50.0) n (%)
same,"Dry skin, Grade ¾",[1],0 n (%)
same,"Dysphagia, All grades",[1],3 (37.5) n (%)
same,"Dysphagia, Grade ¾",[1],0 n (%)
same,"Fatigue, All grades",[1],5 (62.5) n (%)
same,"Fatigue, Grade ¾",[1],1 (12.5) n (%)
same,"Gamma-glutamyltransferase increased, All grades",[1],2 (25.0) n (%)
same,"Gamma-glutamyltransferase increased, Grade ¾",[1],0 n (%)
same,"Haemoglobin decreased, All grades",[1],4 (50.0) n (%)
same,"Haemoglobin decreased, Grade ¾",[1],1 (12.5) n (%)
same,"Hyperkalaemia, All grades",[1],2 (25.0) n (%)
same,"Hyperkalaemia, Grade ¾",[1],0 n (%)
same,"Hypoalbuminaemia, All grades",[1],4 (50.0) n (%)
same,"Hypoalbuminaemia, Grade ¾",[1],1 (12.5) n (%)
same,"Hyponatraemia, All grades",[1],2 (25.0) n (%)
same,"Hyponatraemia, Grade ¾",[1],1 (12.5) n (%)
same,"Insomnia, All grades",[1],4 (50.0) n (%)
same,"Insomnia, Grade ¾",[1],0 n (%)
same,"Lymphopenia, All grades",[1],4 (50.0) n (%)
same,"Lymphopenia, Grade ¾",[1],2 (25.0) n (%)
same,"Malaise, All grades",[1],2 (25.0) n (%)
same,"Malaise, Grade ¾",[1],1 (12.5) n (%)
same,"Nausea, All grades",[1],7 (87.5) n (%)
same,"Nausea, Grade ¾",[1],0 n (%)
same,"Pyrexia, All grades",[1],2 (25.0) n (%)
same,"Pyrexia, Grade ¾",[1],0 n (%)
same,"Rash, All grades",[1],4 (50.0) n (%)
same,"Rash, Grade ¾",[1],0 n (%)
same,"Stomatitis, All grades",[1],5 (62.5) n (%)
same,"Stomatitis, Grade ¾",[1],0 n (%)
same,"Thrombocytopenia, All grades",[1],5 (62.5) n (%)
same,"Thrombocytopenia, Grade ¾",[1],2 (25.0) n (%)
same,"Urinary tract infection, All grades",[1],2 (25.0) n (%)
same,"Urinary tract infection, Grade ¾",[1],0 n (%)
same,"Vomiting, All grades",[1],4 (50.0) n (%)
same,"Vomiting, Grade ¾",[1],0 n (%)
same,study drug-related SAE,"bid dosing group, one patient",grade 4 diarrhea
same,patients with Grade 3 or 4 AEs,"bid dosing, seven patients",87.5%
same,study drug discontinuation due to AEs,"bid group, one patient",12.5%
same,grade 3 or 4 lymphopenia suspected to be study drug-related,"bid group, two patients",25.0%
same,grade 3 or 4 thrombocytopenia suspected to be study drug-related,"bid group, two patients",25.0%
same,deaths during the study period,"including a 30-day follow-up, qd and bid",No patient died
same,"AEs Total, All grades",[2],3 (100.0) n (%)
same,"AEs Total, Grade ¾",[2],2 (66.7) n (%)
same,"Alanine aminotransferase increased, All grades",[2],2 (66.7) n (%)
same,"Alanine aminotransferase increased, Grade ¾",[2],0 n (%)
same,"Blood alkaline phosphatase increased, All grades",[2],1 (33.3) n (%)
same,"Blood alkaline phosphatase increased, Grade ¾",[2],0 n (%)
same,"Cancer pain, All grades",[2],2 (66.7) n (%)
same,"Cancer pain, Grade ¾",[2],1 (33.3) n (%)
same,"Decreased appetite, All grades",[2],2 (66.7) n (%)
same,"Decreased appetite, Grade ¾",[2],0 n (%)
same,"Diarrhea, All grades",[2],2 (66.7) n (%)
same,"Diarrhea, Grade ¾",[2],0 n (%)
same,"Dysgeusia, All grades",[2],0 n (%)
same,"Dysgeusia, Grade ¾",[2],0 n (%)
same,"Fatigue, All grades",[2],1 (33.3) n (%)
same,"Fatigue, Grade ¾",[2],0 n (%)
same,"Leukopenia, All grades",[2],0 n (%)
same,"Leukopenia, Grade ¾",[2],0 n (%)
same,"Lymphopenia, All grades",[2],2 (66.7) n (%)
same,"Lymphopenia, Grade ¾",[2],2 (66.7) n (%)
same,"Nausea, All grades",[2],3 (100.0) n (%)
same,"Nausea, Grade ¾",[2],0 n (%)
same,"Neutropenia, All grades",[2],0 n (%)
same,"Neutropenia, Grade ¾",[2],0 n (%)
same,"Pyrexia, All grades",[2],1 (33.3) n (%)
same,"Pyrexia, Grade ¾",[2],0 n (%)
same,"Rash, All grades",[2],1 (33.3) n (%)
same,"Rash, Grade ¾",[2],0 n (%)
same,"Stomatitis, All grades",[2],2 (66.7) n (%)
same,"Stomatitis, Grade ¾",[2],0 n (%)
same,"Thrombocytopenia, All grades",[2],0 n (%)
same,"Thrombocytopenia, Grade ¾",[2],0 n (%)
same,"Vomiting, All grades",[2],2 (66.7) n (%)
same,"Vomiting, Grade ¾",[2],0 n (%)
same,"AEs Total, All grades",[3],3 (100.0) n (%)
same,"AEs Total, Grade ¾",[3],1 (33.3) n (%)
same,"Alanine aminotransferase increased, All grades",[3],0 n (%)
same,"Alanine aminotransferase increased, Grade ¾",[3],0 n (%)
same,"Blood alkaline phosphatase increased, All grades",[3],0 n (%)
same,"Blood alkaline phosphatase increased, Grade ¾",[3],0 n (%)
same,"Cancer pain, All grades",[3],2 (66.7) n (%)
same,"Cancer pain, Grade ¾",[3],0 n (%)
same,"Decreased appetite, All grades",[3],3 (100.0) n (%)
same,"Decreased appetite, Grade ¾",[3],0 n (%)
same,"Diarrhea, All grades",[3],3 (100.0) n (%)
same,"Diarrhea, Grade ¾",[3],0 n (%)
same,"Dysgeusia, All grades",[3],1 (33.3) n (%)
same,"Dysgeusia, Grade ¾",[3],0 n (%)
same,"Fatigue, All grades",[3],2 (66.7) n (%)
same,"Fatigue, Grade ¾",[3],0 n (%)
same,"Leukopenia, All grades",[3],1 (33.3) n (%)
same,"Leukopenia, Grade ¾",[3],0 n (%)
same,"Lymphopenia, All grades",[3],1 (33.3) n (%)
same,"Lymphopenia, Grade ¾",[3],1 (33.3) n (%)
same,"Nausea, All grades",[3],1 (33.3) n (%)
same,"Nausea, Grade ¾",[3],0 n (%)
same,"Neutropenia, All grades",[3],1 (33.3) n (%)
same,"Neutropenia, Grade ¾",[3],0 n (%)
same,"Pyrexia, All grades",[3],1 (33.3) n (%)
same,"Pyrexia, Grade ¾",[3],0 n (%)
same,"Rash, All grades",[3],0 n (%)
same,"Rash, Grade ¾",[3],0 n (%)
same,"Stomatitis, All grades",[3],2 (66.7) n (%)
same,"Stomatitis, Grade ¾",[3],0 n (%)
same,"Thrombocytopenia, All grades",[3],1 (33.3) n (%)
same,"Thrombocytopenia, Grade ¾",[3],1 (33.3) n (%)
same,"Vomiting, All grades",[3],1 (33.3) n (%)
same,"Vomiting, Grade ¾",[3],0 n (%)
same,"AEs Total, All grades",[4],8 (100.0) n (%)
same,"AEs Total, Grade ¾",[4],4 (50.0) n (%)
same,"Alanine aminotransferase increased, All grades",[4],0 n (%)
same,"Alanine aminotransferase increased, Grade ¾",[4],0 n (%)
